Test results reported in ChEMBL document CHEMBL4673364, “Synthesis and cytotoxic activity of new 7-acetoxy-12-amino-14-deoxy andrographolide analogues” (Bioorg Med Chem Lett, 2021).

Columns and labels:
[1] = Cytotoxicity against human K213 cells assessed as reduction in cell viability by SRB assay; assay type: functional, cell-based
KB = experiment: Cytotoxicity against human KB cells assessed as reduction in cell viability by SRB assay; assay type: functional, cell-based
[2] = Cytotoxicity against rat ASK cells assessed as reduction in cell viability by SRB assay; assay type: functional, cell-based
HT-29 = experiment: Cytotoxicity against human HT-29 cells assessed as reduction in cell viability by SRB assay; assay type: functional, cell-based
A549 = experiment: Cytotoxicity against human A549 cells assessed as reduction in cell viability by SRB assay; assay type: functional, cell-based
[3] = Cytotoxicity against human K055 cells assessed as reduction in cell viability by SRB assay; assay type: functional, cell-based
MCF7 [4] = experiment: Cytotoxicity against human MCF7 cells assessed as reduction in cell viability by SRB assay; assay type: functional, cell-based
[5] = Cytotoxicity against human P388 cells assessed as reduction in cell viability by SRB assay; assay type: functional, cell-based
MCF7 [6] = experiment: Potency index, ratio of andrographolide IC50 to test compound IC50 for cytotoxicity against human MCF7 cells; assay type: functional

SMILES	IC50 [1] [µM]	IC50 (KB) [µM]	IC50 [2] [µM]	IC50 (HT-29) [µM]	IC50 (A549) [µM]	IC50 [3] [µM]	IC50 (MCF7 [4]) [µM]	IC50 [5] [µM]	Ratio IC50 (MCF7 [6])
C=C1CC[C@@H]2[C@](C)(CO[Si](C)(C)C(C)(C)C)[C@H](OC(C)=O)CC[C@@]2(C)[C@@H]1C/C=C1/C(=O)OC[C@H]1OC(C)=O	38.7	5.05	2.41	4.69	3.99	44.3	4.84	0.3	–
C=C1[C@@H](OC(C)=O)C[C@@H]2[C@](C)(COC=O)[C@H](OC(C)=O)CC[C@@]2(C)[C@@H]1C[C@@H](Nc1ccccc1C(=O)O)C1=CCOC1=O	42.6	42.5	> 50	28.7	45.9	40.4	30.8	9.11	–
C=C1[C@@H](OC(C)=O)C[C@@H]2[C@](C)(COC=O)[C@H](OC(C)=O)CC[C@@]2(C)[C@@H]1C[C@@H](Nc1ccc(F)cc1)C1=CCOC1=O	30.2	22.9	38.6	20.5	21.2	25.8	12.4	6.31	–
C=C1[C@@H](OC(C)=O)C[C@@H]2[C@](C)(COC=O)[C@H](OC(C)=O)CC[C@@]2(C)[C@@H]1C[C@@H](Nc1cccc2ccccc12)C1=CCOC1=O	31.3	32.3	> 50	8.67	35.6	28.8	9.75	6.49	–
C=C1[C@@H](OC(C)=O)C[C@@H]2[C@](C)(COC=O)[C@H](OC(C)=O)CC[C@@]2(C)[C@@H]1C[C@@H](Nc1ccc(O)cc1)C1=CCOC1=O	27.1	28.9	24.2	13.4	29.1	28.6	18.1	4.4	–
C=C1[C@@H](OC(C)=O)C[C@@H]2[C@](C)(CO[Si](C)(C)C(C)(C)C)[C@H](OC(C)=O)CC[C@@]2(C)[C@@H]1C[C@@H](Nc1ccc(OC)c(OC)c1)C1=CCOC1=O	5.15	5.8	4.95	5.33	4.87	5.73	4.31	4.53	–
C=C1[C@@H](OC(C)=O)C[C@@H]2[C@](C)(CO[Si](C)(C)C(C)(C)C)[C@H](OC(C)=O)CC[C@@]2(C)[C@@H]1C[C@@H](Nc1ccc(C(=O)O)cc1)C1=CCOC1=O	6.75	5.54	4.31	4.63	4.21	4.88	3.99	4.18	7
C=C1[C@@H](OC(C)=O)C[C@@H]2[C@](C)(COC=O)[C@H](OC(C)=O)CC[C@@]2(C)[C@@H]1C[C@@H](Nc1ccc(Br)cc1)C1=CCOC1=O	25.4	24	49.9	13.2	15.8	24.4	11.4	4.95	–
C=C1[C@@H](OC(C)=O)C[C@@H]2[C@](C)(COC=O)[C@H](OC(C)=O)CC[C@@]2(C)[C@@H]1C/C=C1/C(=O)OC[C@H]1OC(C)=O	20.8	21.6	19.2	8.29	19	15.3	12.9	4.55	–
C=C1[C@@H](OC(C)=O)C[C@@H]2[C@](C)(COC=O)[C@H](OC(C)=O)CC[C@@]2(C)[C@@H]1C[C@H](C1=CCOC1=O)N1CCOCC1	31.7	> 50	34.4	35.1	> 50	33.7	43.6	29.2	–
C=C1[C@@H](OC(C)=O)C[C@@H]2[C@](C)(CO[Si](C)(C)C(C)(C)C)[C@H](OC(C)=O)CC[C@@]2(C)[C@@H]1C[C@@H](Nc1ccc(O)cc1)C1=CCOC1=O	9.25	8.35	5	6.14	5.09	5.95	5.22	5.03	–
C=C1[C@@H](C/C=C2/C(=O)OC[C@H]2OC(C)=O)[C@]2(C)CC[C@@H](OC(C)=O)[C@@](C)(CO[Si](C)(C)C(C)(C)C)[C@H]2C[C@@H]1O	24	9.79	5.97	9.31	6.85	19.9	6.96	0.9	–
C=C1[C@@H](OC(C)=O)C[C@@H]2[C@](C)(CO[Si](C)(C)C(C)(C)C)[C@H](OC(C)=O)CC[C@@]2(C)[C@@H]1C[C@@H](Nc1ccc(OC)cc1)C1=CCOC1=O	5.2	5.63	4.56	5.37	4.81	5.6	4.28	4.03	–
C=C1[C@@H](OC(C)=O)C[C@@H]2[C@](C)(CO[Si](C)(C)C(C)(C)C)[C@H](OC(C)=O)CC[C@@]2(C)[C@@H]1C[C@@H](Nc1cccc(OC)c1)C1=CCOC1=O	40.1	45.2	39.7	> 50	17.2	44	28.1	27.8	–
C=C1[C@@H](OC(C)=O)C[C@@H]2[C@](C)(CO[Si](C)(C)C(C)(C)C)[C@H](OC(C)=O)CC[C@@]2(C)[C@@H]1C[C@@H](Nc1cccc2ccccc12)C1=CCOC1=O	15.3	8.93	6.33	15	4.97	6.72	5.77	5.74	–
C=C1[C@@H](OC(C)=O)C[C@@H]2[C@](C)(COC=O)[C@H](OC(C)=O)CC[C@@]2(C)[C@@H]1C[C@@H](Nc1ccc(C(=O)O)cc1)C1=CCOC1=O	> 50	> 50	> 50	37.2	> 50	48.3	41.6	22.2	–
C=C1[C@@H](OC(C)=O)C[C@@H]2[C@](C)(COC=O)[C@H](OC(C)=O)CC[C@@]2(C)[C@@H]1C[C@@H](Nc1cccc(F)c1)C1=CCOC1=O	27.2	28.6	35.8	9.41	23.2	29.2	14.1	5.53	–
C=C1[C@@H](OC(C)=O)C[C@@H]2[C@](C)(CO[Si](C)(C)C(C)(C)C)[C@H](OC(C)=O)CC[C@@]2(C)[C@@H]1C[C@H](C1=CCOC1=O)N1CCOCC1	–	35.7	26.3	37.6	24.8	28.3	31.6	20.4	–
C=C1[C@@H](OC(C)=O)C[C@@H]2[C@](C)(COC=O)[C@H](OC(C)=O)CC[C@@]2(C)[C@@H]1C[C@@H](Nc1ccc(OC)cc1)C1=CCOC1=O	40.9	32.7	> 50	25.4	28.9	33.2	24.2	7.9	–
C=C1[C@@H](OC(C)=O)C[C@@H]2[C@](C)(CO[Si](C)(C)C(C)(C)C)[C@H](OC(C)=O)CC[C@@]2(C)[C@@H]1C[C@@H](Nc1ccccc1F)C1=CCOC1=O	5.45	4.74	3.69	3.71	3.19	5.19	2.93	3.14	7
C=C1[C@@H](OC(C)=O)C[C@@H]2[C@](C)(COC=O)[C@H](OC(C)=O)CC[C@@]2(C)[C@@H]1C[C@@H](Nc1ccccc1F)C1=CCOC1=O	31	29	31.6	9.76	23.6	30.3	16.4	5.97	–
C=C1[C@@H](OC(C)=O)C[C@@H]2[C@](C)(COC=O)[C@H](OC(C)=O)CC[C@@]2(C)[C@@H]1C[C@@H](Nc1ccccc1)C1=CCOC1=O	39.8	32.1	41	28.8	25.8	33.2	26.2	7.84	–
C=C1[C@@H](OC(C)=O)C[C@@H]2[C@](C)(CO[Si](C)(C)C(C)(C)C)[C@H](OC(C)=O)CC[C@@]2(C)[C@@H]1C[C@@H](Nc1ccccc1C(=O)O)C1=CCOC1=O	5.91	6.05	4.31	5.34	4.89	5.64	4.46	4.31	7
C=C1[C@@H](OC(C)=O)C[C@@H]2[C@](C)(COC=O)[C@H](OC(C)=O)CC[C@@]2(C)[C@@H]1C[C@@H](Nc1ccc(OC)c(OC)c1)C1=CCOC1=O	> 50	> 50	> 50	42.8	> 50	48.2	> 50	25.8	–
C=C1CC[C@@H]2[C@](C)(CO)[C@H](O)CC[C@@]2(C)[C@@H]1C/C=C1/C(=O)OC[C@H]1O [ANDROGRAPHOLIDE]	33.9	41.5	45.4	10.8	12.2	30.2	29.1	6.91	–
Cc1c2ccncc2c(C)c2c1[nH]c1ccccc12 [ELLIPTECINE]	2.11	2.2	2.42	2.59	2.13	2.04	2.18	1.87	–
